Experimental findings from PMC9940855, “First-in-Class Dual Hybrid Carbonic Anhydrase Inhibitors and Transient Receptor Potential Vanilloid 1 Agonists Revert Oxaliplatin-Induced Neuropathy” (Journal of Medicinal Chemistry, 2023) are described below.

pEC50, pKi: −log10 of the molar value. Where “and” joins values, the source holds several entries; their conditions need not be identical. Identical values can stand only once.

Test [1] concerns the target hCA I (Homo sapiens, UniProt P00915). To be noted: read-out: KI hCA I; stopped-flow CO2 hydrase assay; mean from three different assays, errors ±5–10%.
Test [2] deals with hCA IV (Homo sapiens, UniProt P22748). The note with it: read-out: KI hCA IV; stopped-flow CO2 hydrase assay; mean from three different assays, errors ±5–10%.
Test [3] deals with T1, hCA IX (Homo sapiens, UniProt Q16790).
T1 construct: made in house
It is filed as biochemical.

For test [4], the target named is hCA VII (Homo sapiens, UniProt P43166). To be noted: read-out: KI hCA VII; stopped-flow CO2 hydrase assay; mean from three different assays, errors ±5–10%.
The target of test [5] is T2, TRPV1 receptor (Homo sapiens, UniProt Q8NER1).
T2 construct: expressed in transfected cells
The test is described as follows: TRPV1 assay, Fluo-4NW fluorescence in SH-SY5Y-TRPV1 cells. The class given is cell-based. The note with it: read-out: EC50 on TRPV1 receptor activity (agonism). As to the method:
SH-SY5Y-TRPV1 cells (kindly provided by Johanna Lilja and Anna Forsby (University of Stockholm, Stockholm, Sweden))[40] were cultured in 96 wells. Upon 90% confluence had been reached, the cells were loaded with 5 μM Fluo-4NW for 1 h at 37 °C. […] Briefly, after measuring the basal fluorescence of the plate (four cycles), testing compounds were added to the plate, and the fluorescence was measured for additional 10 cycles; thereafter, 10 μM capsaicin was added with a microinjector and the fluorescence was monitored for an additional 10 cycles.

For test [6], the target named is hCA XII (Homo sapiens, UniProt O43570). To be noted: read-out: KI hCA XII; stopped-flow CO2 hydrase assay; mean from three different assays, errors ±5–10%.
The target of test [7] is hCA II (Homo sapiens, UniProt P00918). To be noted: read-out: KI hCA II; stopped-flow CO2 hydrase assay; mean from three different assays, errors ±5–10%.

Chain of hCA VII (P43166 whole entry): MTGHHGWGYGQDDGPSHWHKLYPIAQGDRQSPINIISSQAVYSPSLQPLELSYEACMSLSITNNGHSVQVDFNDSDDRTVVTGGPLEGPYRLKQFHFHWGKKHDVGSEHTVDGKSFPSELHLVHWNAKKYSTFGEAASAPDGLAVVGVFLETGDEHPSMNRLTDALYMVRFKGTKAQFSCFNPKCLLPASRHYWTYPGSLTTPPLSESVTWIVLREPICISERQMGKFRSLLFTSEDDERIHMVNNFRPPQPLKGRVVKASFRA
Chain of hCA IV (P22748 19-312): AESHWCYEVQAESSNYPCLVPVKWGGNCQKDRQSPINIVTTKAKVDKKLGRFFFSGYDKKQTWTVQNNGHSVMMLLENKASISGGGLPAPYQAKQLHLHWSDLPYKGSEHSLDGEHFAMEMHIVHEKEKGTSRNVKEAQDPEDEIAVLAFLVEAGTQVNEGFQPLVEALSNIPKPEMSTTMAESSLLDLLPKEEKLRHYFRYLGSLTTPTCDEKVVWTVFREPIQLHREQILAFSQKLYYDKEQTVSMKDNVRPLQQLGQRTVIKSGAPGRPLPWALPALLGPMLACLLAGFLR
Chain of hCA I (P00915 whole entry): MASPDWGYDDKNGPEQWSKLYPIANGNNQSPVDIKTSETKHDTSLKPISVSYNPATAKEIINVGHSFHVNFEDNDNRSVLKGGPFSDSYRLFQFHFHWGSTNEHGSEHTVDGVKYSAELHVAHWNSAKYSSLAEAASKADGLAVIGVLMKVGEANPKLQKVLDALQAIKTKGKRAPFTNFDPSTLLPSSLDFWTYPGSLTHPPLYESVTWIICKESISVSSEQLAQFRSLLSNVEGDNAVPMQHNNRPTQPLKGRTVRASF
Chain of hCA XII (O43570 25-354): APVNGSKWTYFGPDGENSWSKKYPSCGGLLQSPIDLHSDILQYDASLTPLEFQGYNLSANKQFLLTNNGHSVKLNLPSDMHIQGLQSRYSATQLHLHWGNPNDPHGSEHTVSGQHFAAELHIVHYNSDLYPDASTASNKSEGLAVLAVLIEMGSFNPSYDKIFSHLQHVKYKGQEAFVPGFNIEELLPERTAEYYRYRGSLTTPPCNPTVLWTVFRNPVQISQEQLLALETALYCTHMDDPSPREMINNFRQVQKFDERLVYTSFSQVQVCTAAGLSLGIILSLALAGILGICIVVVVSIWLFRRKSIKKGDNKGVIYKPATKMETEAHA
T2 sequence (Q8NER1 whole entry): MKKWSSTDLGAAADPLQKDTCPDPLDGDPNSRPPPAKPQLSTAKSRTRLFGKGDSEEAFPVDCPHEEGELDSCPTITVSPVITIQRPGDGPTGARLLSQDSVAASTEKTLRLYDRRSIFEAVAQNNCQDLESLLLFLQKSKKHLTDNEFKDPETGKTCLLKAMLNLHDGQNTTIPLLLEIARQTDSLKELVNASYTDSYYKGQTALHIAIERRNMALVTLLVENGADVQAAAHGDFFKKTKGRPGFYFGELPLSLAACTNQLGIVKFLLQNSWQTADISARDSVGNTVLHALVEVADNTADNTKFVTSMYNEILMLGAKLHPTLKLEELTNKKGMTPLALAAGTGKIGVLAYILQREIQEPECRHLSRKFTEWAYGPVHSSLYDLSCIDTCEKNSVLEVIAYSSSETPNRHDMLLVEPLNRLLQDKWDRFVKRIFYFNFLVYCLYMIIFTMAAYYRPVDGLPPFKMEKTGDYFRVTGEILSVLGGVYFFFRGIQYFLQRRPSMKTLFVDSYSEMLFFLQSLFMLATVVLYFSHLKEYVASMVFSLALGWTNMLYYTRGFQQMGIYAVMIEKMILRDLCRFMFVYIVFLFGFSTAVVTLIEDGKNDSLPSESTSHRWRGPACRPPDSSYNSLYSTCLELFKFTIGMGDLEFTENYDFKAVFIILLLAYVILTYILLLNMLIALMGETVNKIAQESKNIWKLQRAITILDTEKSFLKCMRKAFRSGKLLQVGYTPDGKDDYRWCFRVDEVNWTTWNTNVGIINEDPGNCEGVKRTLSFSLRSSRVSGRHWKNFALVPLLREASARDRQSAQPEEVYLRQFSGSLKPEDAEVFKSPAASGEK

In the case of `NS(=O)(=O)c1ccc(N2CC[C@@H](NC(=O)Nc3ccc(Cl)c(C(F)(F)F)c3)C2)nc1` [10a, (R)-6-(3-(3-(4-Chloro-3-(trifluoromethyl)phenyl)ureido)pyrrolidin-1-yl)pyridine-3-sulfonamide], the pKi in test [1] was 6.10; in test [2] it was 5.40; in test [3], 6.13; in test [4], 7.10. For the same compound, in test [5], the pEC50 was 4.13.
Turning to `NS(=O)(=O)c1ccc(N2CC[C@@H](NC(=O)Nc3ccccc3F)C2)nc1` [11a, (R)-6-(3-(3-(2-Fluorophenyl)ureido)pyrrolidin-1-yl)pyridine-3-sulfonamide], the pKi in test [1] is 7.43; in test [6] it was 7.14; in test [4], 6.73. The negative-log EC50 (pEC50) in test [5] is < 4.00.
Consider `NS(=O)(=O)c1ccc(N2CC[C@@H](NC(=O)Nc3ccc(Oc4ccccc4)cc3)C2)nc1` [13a, (R)-6-(3-(3-(4-Phenoxyphenyl)ureido)pyrrolidin-1-yl)pyridine-3-sulfonamide], for which the pKi was 6.61 in test [3], 6.39 in test [6] and 7.11 in test [4]. Moreover, the pEC50 in test [5] is < 4.00.
As to `COc1ccccc1NC(=O)N[C@H]1CCN(c2ccc(S(N)(=O)=O)cn2)C1` [18b, (S)-6-(3-(3-(2-Methoxyphenyl)ureido)pyrrolidin-1-yl)pyridine-3-sulfonamide], the pKi was 6.51 in test [7]; 6.32 in test [1]; 5.10 in test [2]; 7.21 in test [3]; 7.41 in test [6]; 7.23 in test [4].
As for `NS(=O)(=O)c1ccc(N2CC[C@@H](NC(=O)NS(=O)(=O)c3ccccc3)C2)nc1` [24a, (R)-6-(3-(3-(Phenylsulfonyl)ureido)pyrrolidin-1-yl)pyridine-3-sulfonamide], the pKi in test [7] was 6.29; in test [1] it was 7.71; in test [2], 7.44; in test [3], 7.56; in test [6], 7.31; in test [4], 7.10.
As for `NS(=O)(=O)c1ccc(NC(=S)N[C@H]2CCN(c3cccc([N+](=O)[O-])n3)C2)cc1` [37b, (S)-4-(3-(1-(6-Nitropyridin-2-yl)pyrrolidin-3-yl)thioureido)benzenesulfonamide], the pKi was 8.31 in test [7]; 7.26 in test [1]; 5.49 in test [2]; 8.89 in test [3]; 8.06 in test [6]; 8.11 in test [4].
Turning to `NS(=O)(=O)c1cccc(NC(=S)N[C@H]2CCN(c3cccc([N+](=O)[O-])n3)C2)c1` [38b, (S)-3-(3-(1-(6-Nitropyridin-2-yl)pyrrolidin-3-yl)thioureido)benzenesulfonamide], the pKi in test [7] is 8.41; in test [1], 8.06; in test [2] it was 5.89; in test [3], 8.85; in test [6], 8.03; in test [4] it was 7.81. Besides, the “fold more active than its enantiomer, hCA IX” value in test [3] is on record as “over 100 fold”.
With `NS(=O)(=O)c1ccc(NC(=S)N[C@@H]2CCN(c3ccc(C(F)(F)F)cn3)C2)cc1` [39a, (R)-4-(3-(1-(5-(Trifluoromethyl)pyridin-2-yl)pyrrolidin-3-yl)thioureido)benzenesulfonamide], the pKi in test [2] was 5.30; in test [3], 6.45; in test [6], 7.20; in test [4] it was 7.13. Moreover, the pEC50 in test [5] was 4.90 and 4.91.
On to `NS(=O)(=O)c1ccc(NC(=S)N[C@H]2CCN(c3ccc(C(F)(F)F)cn3)C2)cc1` [39b, (S)-4-(3-(1-(5-(Trifluoromethyl)pyridin-2-yl)pyrrolidin-3-yl)thioureido)benzenesulfonamide], for which the negative-log Ki (pKi) is 5.01 in test [2], 8.22 in test [3], 8.03 in test [6] and 7.80 in test [4]. The pEC50 in test [5] was 4.90.
For `NS(=O)(=O)c1cccc(NC(=S)N[C@@H]2CCN(c3ccc(C(F)(F)F)cn3)C2)c1` [40a, (R)-3-(3-(1-(5-(Trifluoromethyl)pyridin-2-yl)pyrrolidin-3-yl)thioureido)benzenesulfonamide], the values for the negative logarithm of the Ki (pKi) in test [1], in test [3] and in test [4] were 6.31, 7.44 and 7.26, respectively. Moreover, the pEC50 in test [5] was 4.66.
With `NS(=O)(=O)c1ccc(NC(=O)N[C@@H]2CCN(c3ccccn3)C2)cc1` [41a, (R)-4-(3-(1-(Pyridin-2-yl)pyrrolidin-3-yl)ureido)benzenesulfonamide], the pKi in test [7] was 8.10; in test [1] it was 7.23; in test [2], 5.45; in test [3] it was 7.54; in test [6] it was 7.50; in test [4] it was 8.02.
For the compound `NS(=O)(=O)c1cccc(NC(=O)N[C@@H]2CCN(c3ccccn3)C2)c1` [42a, (R)-3-(3-(1-(Pyridin-2-yl)pyrrolidin-3-yl)ureido)benzenesulfonamide], the pKi in test [7] is 8.77; in test [1], 8.02; in test [2], 5.61; in test [3] it was 6.90; in test [6] it was 8.09; in test [4], 8.09.
Consider `NS(=O)(=O)c1ccc(NC(=O)N[C@H]2CCN(c3cccc([N+](=O)[O-])n3)C2)cc1` [43b, (S)-4-(3-(1-(6-Nitropyridin-2-yl)pyrrolidin-3-yl)ureido)benzenesulfonamide], for which the pKi in test [7] is 7.83; in test [1] it was 7.12; in test [2] it was 5.08; in test [3], 7.57; in test [6] it was 8.04; in test [4], 8.06.
Turning to `NS(=O)(=O)c1cccc(NC(=O)N[C@@H]2CCN(c3cccc([N+](=O)[O-])n3)C2)c1` [44a, (R)-3-(3-(1-(6-Nitropyridin-2-yl)pyrrolidin-3-yl)ureido)benzenesulfonamide], the pKi in test [7] is 8.21; in test [1], 7.12; in test [2], 5.68; in test [3], 6.01; in test [6], 7.42; in test [4], 7.13.
Regarding `NS(=O)(=O)c1cccc(NC(=O)N[C@H]2CCN(c3cccc([N+](=O)[O-])n3)C2)c1` [44b, (S)-3-(3-(1-(6-Nitropyridin-2-yl)pyrrolidin-3-yl)ureido)benzenesulfonamide], the pKi is 8.18 in test [7]; 7.06 in test [1]; 5.02 in test [2]; 6.72 in test [3]; 7.32 in test [6]; 7.75 in test [4].
In the case of `NS(=O)(=O)c1ccc(NC(=O)N[C@@H]2CCN(c3ccc(C(F)(F)F)cn3)C2)cc1` [45a, (R)-4-(3-(1-(5-(Trifluoromethyl)pyridin-2-yl)pyrrolidin-3-yl)ureido)benzenesulfonamide], the pKi in test [7] is 7.56; in test [1], 7.14; in test [2] it was 5.41; in test [3], 7.44; in test [6] it was 8.20; in test [4], 8.09.
For the compound `NS(=O)(=O)c1ccc(NC(=O)N[C@H]2CCN(c3ccc(C(F)(F)F)cn3)C2)cc1` [45b, (S)-4-(3-(1-(5-(Trifluoromethyl)pyridin-2-yl)pyrrolidin-3-yl)ureido)benzenesulfonamide], the pKi is 7.33 in test [7]; 7.16 in test [1]; 5.01 in test [2]; 7.27 in test [3]; 8.07 in test [6]; 7.89 in test [4].
